# Measured values as given in ChEMBL document CHEMBL3217629, “Discovery of novel morpholinoquinoxalines as PI3K inhibitors by pharmacophore-based screening” (Medchemcomm, 2012).
# What was measured:
# A549 = assay: Cytotoxicity against human A549 cells after 72 hrs by MTT assay; type: functional, cell-based; conditions: A549, 72 h
# HL-60 = assay: Cytotoxicity against human HL60 cells after 72 hrs by MTT assay; type: functional, cell-based; conditions: HL-60, 72 h
# [1] = biological target: Phosphatidylinositol 4,5-bisphosphate 3-kinase catalytic subunit alpha isoform (Homo sapiens, UniProt P42336); assay: Inhibition of recombinant human PI3Kalpha using diC8-PI(4,5)P2 as substrate after 3 hrs by fluorescence polarization method
# Sequence of Phosphatidylinositol 4,5-bisphosphate 3-kinase catalytic subunit alpha isoform (P42336 whole entry, canonical isoform): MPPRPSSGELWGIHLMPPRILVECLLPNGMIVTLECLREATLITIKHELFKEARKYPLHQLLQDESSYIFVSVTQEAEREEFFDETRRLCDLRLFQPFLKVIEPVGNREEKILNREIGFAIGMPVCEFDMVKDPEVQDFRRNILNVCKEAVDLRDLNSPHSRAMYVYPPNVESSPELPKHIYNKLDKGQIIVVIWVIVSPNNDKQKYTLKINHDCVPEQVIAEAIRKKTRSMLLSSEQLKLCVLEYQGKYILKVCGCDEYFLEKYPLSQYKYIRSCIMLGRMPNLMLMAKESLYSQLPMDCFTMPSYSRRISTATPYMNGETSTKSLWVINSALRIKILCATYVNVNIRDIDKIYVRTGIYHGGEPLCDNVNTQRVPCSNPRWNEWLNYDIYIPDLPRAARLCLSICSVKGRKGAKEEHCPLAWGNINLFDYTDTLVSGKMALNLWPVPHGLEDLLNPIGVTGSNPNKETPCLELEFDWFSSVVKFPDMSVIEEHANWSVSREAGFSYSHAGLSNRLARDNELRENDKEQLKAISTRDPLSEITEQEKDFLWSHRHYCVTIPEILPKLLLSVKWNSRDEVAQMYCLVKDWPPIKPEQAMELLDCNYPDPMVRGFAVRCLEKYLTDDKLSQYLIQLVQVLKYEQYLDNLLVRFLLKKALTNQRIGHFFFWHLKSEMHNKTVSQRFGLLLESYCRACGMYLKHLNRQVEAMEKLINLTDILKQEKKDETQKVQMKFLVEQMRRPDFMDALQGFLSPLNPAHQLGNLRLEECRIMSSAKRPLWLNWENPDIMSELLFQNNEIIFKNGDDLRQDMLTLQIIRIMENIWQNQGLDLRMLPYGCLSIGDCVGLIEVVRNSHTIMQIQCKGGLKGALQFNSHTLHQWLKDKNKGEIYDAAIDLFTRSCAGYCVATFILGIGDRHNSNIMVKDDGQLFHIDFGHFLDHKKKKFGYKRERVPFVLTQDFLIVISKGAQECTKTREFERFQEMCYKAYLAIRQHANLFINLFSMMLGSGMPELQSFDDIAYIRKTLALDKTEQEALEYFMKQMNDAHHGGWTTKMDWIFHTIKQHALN
# PC-3 = assay: cells; conditions: Homo sapiens, PC-3, 72 h
# Description: Cytotoxicity against human PC3 cells after 72 hrs by MTT assay
# HCT-116 = assay: cells; conditions: Homo sapiens, HCT-116, 72 h
SMILES,IC50 [1] [µM],IC50 (PC-3) [µM],IC50 (HCT-116) [µM],IC50 (A549) [µM],IC50 (HL-60) [µM]
O=S(=O)(c1ccc(Br)cc1)c1nc2ccccc2nc1N1CCOCC1,2.89,25.4,35,6.65,3.41
O=S(=O)(c1ccc(F)cc1)c1nc2ccccc2nc1N1CCOCC1,2.49,3.4,3.61,5.64,1.74
c1ccc(Sc2nc3ccccc3nc2N2CCOCC2)cc1,> 50,> 50,45.6,7.25,5.18
O=S(=O)(c1ccccc1)c1nc2ccccc2nc1N1CCCCC1,21.6,26.9,6.48,> 50,27.1

# Now those with a lower IC50 [1], led by results:
IC50 [1] [µM],IC50 (PC-3) [µM],IC50 (HCT-116) [µM],SMILES,IC50 (A549) [µM],IC50 (HL-60) [µM]
1.58,9.34,10.5,Cc1ccc(S(=O)(=O)c2nc3ccccc3nc2N2CCOCC2)cc1,3.3,0.95
1.4,0.88,> 50,COc1ccc(S(=O)(=O)c2nc3ccccc3nc2N2CCOCC2)cc1,19.4,4.8
